Measured values reported in US20090048258A1, “Amide Compound” (priority 2005, published 2009).
Where two headings read alike, the source gives them in different places.

Target: T1, Human DGAT1 (Homo sapiens, UniProt O75907)
T1 construct: my translation of the primer: M-G-DYKDDDD-GDRGSSRRR) (N); made in house; host or cells: Sf9 insect cells (recombinant baculovirus BAC-DGAT1, pFASTBAC1); microsome fraction
T1 sequence (O75907 1-488): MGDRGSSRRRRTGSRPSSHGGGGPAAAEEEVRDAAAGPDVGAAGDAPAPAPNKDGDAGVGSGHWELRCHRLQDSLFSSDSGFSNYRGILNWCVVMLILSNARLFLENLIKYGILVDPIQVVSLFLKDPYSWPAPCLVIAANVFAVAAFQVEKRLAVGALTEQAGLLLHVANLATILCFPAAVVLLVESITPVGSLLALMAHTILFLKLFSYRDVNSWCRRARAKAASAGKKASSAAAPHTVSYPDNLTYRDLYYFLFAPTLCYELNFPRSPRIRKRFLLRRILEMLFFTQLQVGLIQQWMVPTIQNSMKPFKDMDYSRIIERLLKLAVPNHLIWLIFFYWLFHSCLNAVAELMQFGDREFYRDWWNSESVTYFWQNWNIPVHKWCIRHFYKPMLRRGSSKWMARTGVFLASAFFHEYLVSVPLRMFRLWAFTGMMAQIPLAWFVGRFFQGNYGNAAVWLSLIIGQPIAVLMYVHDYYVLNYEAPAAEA
Test: DGAT inhibitory activity: [14C]-triglyceride synthesis by DGAT1 high expression Sf9 microsome
Format: biochemical
Details: 25 μM [14C]-Oleoyl-CoA, 32° C., 15 min, read-out: DGAT inhibitory activity (according to IC50)
Method: The primer base sequence is shown below.
The PCR reaction was conducted using a KOD-plus kit (TOYOBO). The obtained PCR product was electrophoresed on agarose gel (1%), the DNA fragment amplified by PCR was recovered from the gel, and then digested with restriction enzymes EcoRI and SpeI. […] Furthermore, using BAC-TO-BAC Baculovirus Expression System (Invitrogen), recombinant baculovirus BAC-DGAT1 was prepared.
SF9 cells were sown at 1×10^6 cells/ml on Sf-900II SEM medium (1 L, Invitrogen) containing 10% fetal calf serum (Trace), 50 mg/L gentamicin (Invitrogen) and 0.1% Pluronic F-68 (Invitrogen), and shaking culture was performed using a 2 L volume Erlenmeyer at 27° C., 100 rpm. After culturing for 24 hr, recombinant baculovirus BAC-DGAT1 (6.7 mL) was added, and the mixture was further cultured for 3 days. The culture medium was centrifuged at 2,000 rpm for 5 min to give virus-infected cells. The infected cells were washed with a phosphate buffered saline (Invitrogen), centrifuged under the same conditions, and the cells were preserved at −80° C. The cryopreserved cells were thawed in ice, suspended in buffer A (50 mM Tris buffer (30 mL, pH 7.4) containing 20% glycerol, 0.15 M NaCl) supplemented with Complete Protease Inhibitor (Boehringer), and ruptured 3 times with a Polytron homogenizer (Kinematica) at 20,000 rpm for 30 sec. The Sf9 microsome fractions were obtained by a conventional method and cryopreserved at −80° C. as a DGAT1 high expression Sf9 microsome.
As a DGAT1 reaction buffer, a solution having a composition of 100 mM Tris-HCl (pH 7.5), 250 mM sucrose, 150 mM MgCl2, 0.01% bovine serum albumin (BSA) was used. […] A mixture of 300 μL of chloroform:methanol (=1:2) was added to the reaction mixture to quench the reaction. The reaction mixture was sufficiently mixed and saline (200 μL) was added to partition the mixture between a chloroform layer (lower layer) and an aqueous layer (upper layer). The chloroform layer (50 μL) was spotted on a thin layer chromatography silica gel plate (TLC plate, Merck) and developed with a solvent (n-hexane:diethyl ether:ethyl acetate:acetic acid=74:15:15:1). The developed TLC plate was dried, contacted with a BAS imaging plate (manufactured by FUJIFILM) and measured with BAS2500 (manufactured by FUJIFILM) 16 hr later to numerically show the amount of [^14C]-triglyceride (TG amount) produced during the reaction. The inhibitory rate was calculated by the following formula:
Inhibitory rate (%)=(1−(TG amount in the case with addition of test compound−blank TG amount)/(control TG amount−blank TG amount))×100
The count of the triglyceride produced in the solution reacted without addition of the test compound was used as a “control TG amount”, and the count of the triglyceride produced in the solution reacted without addition of the test compound and DGAT1 high expression Sf9 microsome was used as a “blank TG amount”.

[1] = Table 2, 25 μM dioleoylglycerol
[2] = Table 1, 25 μM dioleoylglycerol

IC50 [1]	IC50 [2]	Compound
500 to 10000 nM	–	O=C(CCC(=O)c1ccc2c(c1)CCO2)Nc1cc(-c2ccc(CN3CCOCC3)cc2)cc(-c2ccccc2)n1 [Example 161, 4-(2,3-dihydro-1-benzofuran-5-yl)-N-{4-[4-(morpholin-4-ylmethyl)phenyl]-6-phenylpyridin-2-yl}-4-oxobutanamide]
10 to 50 nM	–	CCOc1ccc(C(=O)CCC(=O)Nc2cc(-c3cccc(OC)c3)c3ccccc3n2)cc1OCC [Example 80, 4-(3,4-diethoxyphenyl)-N-[4-(3-methoxyphenyl)quinolin-2-yl]-4-oxobutanamide]
500 to 10000 nM	–	CCOc1ccc(C(=O)CCC(=O)Nc2cc(-c3ccc(/C=C/C(=O)OC)cc3)cc(-c3ccccc3)n2)cc1OCC [Example 127, methyl (2E)-3-[4-(2-{[4-(3,4-diethoxyphenyl)-4-oxobutanoyl]amino}-6-phenylpyridin-4-yl)phenyl]acrylate]
–	50 to 500 nM	CCOc1ccc(C(=O)CCC(=O)Nc2cc(OCc3ccccc3)cc(-c3ccccc3)n2)cc1OCC [Example 42, 4-(3,4-diethoxyphenyl)-N-(4-(benzyloxy)-6-phenylpyridin-2-yl)-4-oxobutanamide]
50 to 500 nM	–	CCOc1ccc(C(=O)CCC(=O)Nc2cc(-c3cccc(C#N)c3)cc(-c3ccccc3)n2)cc1OCC [Example 132, N-[4-(3-cyanophenyl)-6-phenylpyridin-2-yl]-4-(3,4-diethoxyphenyl)-4-oxobutanamide]
–	10 to 50 nM	COCOc1ccc(C(=O)CCC(=O)Nc2nc(-c3ccccc3)c(Cc3ccccc3)s2)cc1 [Example 32, N-(5-benzyl-4-phenyl-1,3-thiazol-2-yl)-4-oxo-4-[4-(methoxymethoxy)phenyl]butanamide]
500 to 10000 nM	–	COC(=O)c1cccc(-c2cc(NC(=O)CCC(=O)c3ccc4c(c3)CCO4)nc(-c3ccccc3)c2)c1 [Example 170, methyl 3-(2-{[4-(2,3-dihydro-1-benzofuran-5-yl)-4-oxobutanoyl]amino}-6-phenylpyridin-4-yl)benzoate]
–	50 to 500 nM	CCOc1ccc(C(=O)CCC(=O)Nc2cc(-c3ccccc3)c(Cc3ccccc3)s2)cc1 [Example 44, N-(5-benzyl-4-phenyl-2-thienyl)-4-(4-ethoxyphenyl)-4-oxobutanamide]
≤ 10 nM	–	COc1ccc(C(=O)CCC(=O)Nc2nc(-c3ccccc3)c(Cc3ccccc3)s2)cc1OC [Example 71, N-(5-benzyl-4-phenyl-1,3-thiazol-2-yl)-4-(3,4-dimethoxyphenyl)-4-oxobutanamide]
50 to 500 nM	–	CCOc1ccc(C(=O)CCC(=O)Nc2cc(-c3ccc(CCC(=O)OC)cc3)cc(-c3ccccc3)n2)cc1OCC [Example 126, methyl 3-[4-(2-{[4-(3,4-diethoxyphenyl)-4-oxobutanoyl]amino}-6-phenylpyridin-4-yl)phenyl]propanoate]
10 to 50 nM	–	CCc1ccc(C(=O)CCC(=O)Nc2nc(-c3ccccc3)c(Cc3ccccc3)s2)s1 [Example 72, N-(5-benzyl-4-phenyl-1,3-thiazol-2-yl)-4-(5-ethyl-2-thienyl)-4-oxobutanamide]
–	10 to 50 nM	O=C(CCC(=O)c1ccc2c(c1)CCO2)Nc1cc(-c2ccccc2)c(Cc2ccccc2)s1 [Example 49, N-(5-benzyl-4-phenyl-2-thienyl)-4-(2,3-dihydro-1-benzofuran-5-yl)-4-oxobutanamide]
50 to 500 nM	–	CCOc1ccc(C(=O)CCC(=O)Nc2cc(-c3cccc(CCCO)c3)cc(-c3ccccc3)n2)cc1OCC [Example 137, 4-(3,4-diethoxyphenyl)-N-{4-[3-(3-hydroxypropyl)phenyl]-6-phenylpyridin-2-yl}-4-oxobutanamide]
10 to 50 nM	–	O=C(CCC(=O)c1ccc2c(c1)CCO2)Nc1cc(-c2ccc3[nH]ccc3c2)cc(-c2ccccc2)n1 [Example 154, 4-(2,3-dihydro-1-benzofuran-5-yl)-N-[4-(1H-indol-5-yl)-6-phenylpyridin-2-yl]-4-oxobutanamide]
–	500 to 10000 nM	O=C(O)Cc1ccc(C(=O)CCC(=O)Nc2nc(-c3ccccc3)c(Cc3ccccc3)s2)cc1 [Example 35]
500 to 10000 nM	–	COC(=O)/C=C/c1ccc(-c2cc(NC(=O)CCC(=O)c3ccc4c(c3)CCO4)nc(-c3ccccc3)c2)cc1 [Example 159, methyl (2E)-3-[4-(2-{[4-(2,3-dihydro-1-benzofuran-5-yl)-4-oxobutanoyl]amino}-6-phenylpyridin-4-yl)phenyl]acrylate]
10 to 50 nM	–	CCOc1ccc(C(=O)CCC(=O)Nc2cc(-c3cccc(O)c3)cc(-c3ccccc3)n2)cc1OCC [Example 134, 4-(3,4-diethoxyphenyl)-N-[4-(3-hydroxyphenyl)-6-phenylpyridin-2-yl]-4-oxobutanamide]
500 to 10000 nM	–	CCOc1ccc(C(=O)CCC(=O)Nc2cc(C(C)(C)C)nn2-c2ccc(C(C)(C)C)cc2)cc1OCC [Example 100, N-[3-tert-butyl-1-(4-tert-butylphenyl)-1H-pyrazol-5-yl]-4-(3,4-diethoxyphenyl)-4-oxobutanamide]
–	50 to 500 nM	CCOc1ccc(C(=O)CCC(=O)Nc2cc(-c3ccc(OCOC)cc3)c3ccccc3n2)cc1OCC [Example 15, 4-(3,4-diethoxyphenyl)-N-{4-[4-(methoxymethoxy)phenyl]quinolin-2-yl}-4-oxobutanamide]
50 to 500 nM	–	COC(=O)CCc1ccc(-c2cc(NC(=O)CCC(=O)c3ccc4c(c3)CCO4)nc(-c3ccccc3)c2)cc1 [Example 158, methyl 3-[4-(2-{[4-(2,3-dihydro-1-benzofuran-5-yl)-4-oxobutanoyl]amino}-6-phenylpyridin-4-yl)phenyl]propanoate]
–	50 to 500 nM	CCCc1ccc(C(=O)CCC(=O)Nc2nc(-c3ccccc3)c(Cc3ccccc3)s2)cc1 [Example 26, N-(5-benzyl-4-phenyl-1,3-thiazol-2-yl)-4-oxo-4-(4-propylphenyl)butanamide]
50 to 500 nM	–	CCCCc1ccc(C(=O)c2sc(NC(=O)CCC(=O)c3cc(OCC)c(OCC)cc3C)nc2-c2ccccc2)cc1 [Example 69, N-[5-(4-butylbenzoyl)-4-phenyl-1,3-thiazol-2-yl]-4-(4,5-diethoxy-2-methylphenyl)-4-oxobutanamide]
–	50 to 500 nM	CCOC(=O)CCc1ccc(NC(=O)CCC(=O)c2ccc(OCC)c(OCC)c2)cc1-c1ccccc1 [Example 9, ethyl 3-(5-{[4-(3,4-diethoxyphenyl)-4-oxobutanoyl]amino}biphenyl-2-yl)propanoate]
–	50 to 500 nM	CCOc1ccc(C(=O)NCCNC(=O)c2cc(-c3ccccc3)n(Cc3ccccc3)c2C)cc1 [Example 63, 1-benzyl-N-{2-[(4-ethoxybenzoyl)amino]ethyl}-2-methyl-5-phenyl-1H-pyrrole-3-carboxamide]
500 to 10000 nM	–	CCOc1ccc(C(=O)CCC(=O)Nc2cc(-c3cccc(C(=O)OC)c3)cc(-c3ccccc3)n2)cc1OCC [Example 139, methyl 3-(2-{[4-(3,4-diethoxyphenyl)-4-oxobutanoyl]amino}-6-phenylpyridin-4-yl)benzoate]

Compound	IC50 [1]	IC50 [2]
CCCCOc1cccc(-c2cc(NC(=O)CCC(=O)c3ccc4c(c3)CCO4)nc(-c3ccccc3)c2)c1 [Example 166, N-[4-(3-butoxyphenyl)-6-phenylpyridin-2-yl]-4-(2,3-dihydro-1-benzofuran-5-yl)-4-oxobutanamide]	500 to 10000 nM	–
